Results from US6514761B1, “Methods of using BCL-2 for the therapeutic treatment and prevention of diseases” (The Burnham Institute, priority 1993, dated 2003).

B1: chicken Bcl-2: chicken Bcl-2 homolog expressed from cDNA in 32D-3 cells (protein, UniProt Q00709 1-233, looked up)
Apoptosis regulator Bcl-2: MAHPGRRGYDNREIVLKYIHYKLSQRGYDWAAGEDRPPVPPAPAPAAAPAAVAAAGASSHHRPEPPGSAAASEVPPAEGLRPAPPGVHLALRQAGDEFSRRYQRDFAQMSGQLHLTPFTAHGRFVAVVEELFRDGVNWGRIVAFFEFGGVMCVESVNREMSPLVDNIATWMTEYLNRHLHNWIQDNGGWDAFVELYGNSMRPLFDFSWISLKTILSLVLVGACITLGAYLGHK

Key:
32D-3 cells [1] = assay: Viability of stably transfected 32D-3 cells in culture (trypan blue exclusion); format: cell-based; settings: cells expressing the protein, followed over days in culture, versus Neo control
Text: FIG. 2A. Cell viability as determined by trypan blue exclusion (mean +/− standard deviation of 3 determinations). W.T., wild-type Bcl-2; P59S, mutant Bcl-2; Neo, control.
32D-3 cells were stably transfected with expression plasmids containing a G418 antibiotic resistance gene and either a wild-type or mutant human Bcl-2 DNA sequence. The mutant Bcl-2 sequence encodes a variant Bcl-2 protein having a serine substitution for a proline at amino acid position 59 (BCL2/P59S). This amino acid substitution results in a high level of constitutive expression of BCL2/P59S.
Following selection of the cells for G418 resistance, cells were plated and their viability was determined.

PC12 cells = assay: Glutamate-induced death of PC12 cells (MTT dye reduction assay); format: cell-based, rat; settings: PC12 cells infected with pZIP-BCL-2; 30 mM glutamate, 24 hours
Experimental: FIG. 4. Protection of PC12 cells from glutamate-induced death by Bcl-2. Cell viability as determined by MTT dye reduction assay (mean +/− standard deviation of 3 determinations).
The rat pheochromocytoma cell line, PC12, was stably infected with pZIP-BCL-2 or pZIP-NEO (see FIG. 1B), then treated with 30 mM glutamate for 24 hours. Following treatment, cell viability was assessed by MTT dye reduction assay as described in Tada et al., J. Immunol. Meth. 93:157-165 (1986).

AT-3 cells = assay: Sindbis virus-induced death of AT-3 prostate cancer cells (trypan blue exclusion); format: cell-based, rat; settings: AT-3 cells infected with pZIP-BCL2, grown with Sindbis virus
Text: FIG. 3. Bcl-2 blocks prostate cancer cell line, AT-3, death induced by Sindbis virus infection. Cell viability as determine by trypan blue exclusion (mean +/− standard deviation of 3 determinations). pZIP-BCL2 or pZIP-NEO are described in FIG. 1B. AT-3-NEO control cells (circles); AT-3-BCL2 cells (squares). Virus infected cells (solid symbols); cells cultured in the absence of virus (open symbols).
A rat prostate cancer cell line, AT-3, was infected with pZIP-BCL2 or pZIP-NEO (see FIG. 1B), then grown in the presence or absence of Sindbis virus. At various times after the addition of Sindbis virus, cells were collected and cell viability was determine using trypan blue exclusion.

32D-3 cells [2] = assay: Survival of transfected 32D-3 cells cultured without growth factor; format: cell-based; settings: 32D-3 cells expressing the protein, growth factor deprivation
Text: FIGS. 5A and 5B. Homologs of Bcl-2 prolong survival of 32D-3 cells grown in the absence of Il-3 for various times. Cell viability as determined by the trypan blue exclusion (mean +/− standard deviation of 3 determinations).
FIGS. 6A to 6C. Bcl-2 acts synergistically with Raf-1 to prolong cell survival under conditions of growth factor deprivation. Bcl-2 protein, alone (open circles); activated Raf-1 protein, alone (squares); Bcl-2+Raf-1 proteins (closed circles); no Bcl-2 or Raf-1 protein (triangles).
FIG. 7. A dominant-negative form of the Bcl-2 protein, Bcl-2β, accelerates cell death. Cell viability as determined by trypan blue exclusion. […]
32D-3 cells were stably transfected with expression plasmids containing either a hygromyin (HYG) or a G418 (NEO) antibiotic resistance gene and cDNA encoding either the human Bcl-2 protein, the chicken Bcl-2 protein or the BHRF-1 protein from Epstein Barr Virus (viral homolog of Bcl-2). […] Following transfection, cells were cultured without growth factor for various times and the number of viable cells was determined.
32D-3 cells were stably transfected with expression plasmids producing Bcl-2 protein, activated Raf-1 protein or both Bcl-2 and Raf-1, then cultured under conditions of growth factor deprivation that cause apoptosis. At various times after removing the growth factor from the medium, cells were collected and viability was determined. […]

[3] = test system: in vitro self-assembled nuclei; assay: Cell-free apoptosis assay: nuclei assembled in Xenopus egg extracts with sperm chromatin; design: species or system Xenopus laevis
Experimental: A cell-free assay for assessing Bcl-2 function was developed to rapidly screen compounds for ability to inhibit or enhance Bcl-2 protein function. The assay utilizes in vitro self-assembled nuclei generated by mixing cell extracts derived from Xenopus laevis eggs with isolated sperm chromatin. The nuclei assemble normally but, after about 2 hours, begin to disintegrate. The nuclei appeared contracted and had the same appearance as isolated nuclei that had been treated briefly with an endonuclease. This phenomenon appears to represent apoptosis. Alternatively, isolated hepatocyte nuclei can be substituted for sperm chromatin and mixed with the egg extracts, resulting in the same phenomenon.
To test the effect of Bcl-2 protein on nuclei, lysates were prepared from Sf9 insect cells infected with recombinant baculoviruses encoding either Bcl-2 or an irrelevant protein such as β-galactosidase (β-gal) or the Lck kinase (see Reed et al., Anal. Biochem. 205:70-76 (1992). To confirm that Bcl-2 was expressed in the insect cell lysates, Sf9 insect cells were infected with recombinant Bcl-2 baculovirus or recombinant Lck baculovirus vectors. Infected cells were incubated for three days to allow expression of the gene products, then lysates were obtained and fractionated by SDS-PAGE electrophoresis. Following electrophoresis, proteins were transferred to membrane and probed with an antiserum raised against a synthetic peptide corresponding to part of the predicted amino acid sequence of human Bcl-2. […] Bcl-2 protein comprised about 5-10% of the total extracted protein.
Sf9 cell lysates were added at a 1:90 dilution into the Xenopus extracts or to a final protein concentration of 10 μg/ml (see Newmeyer and Wilson, Meth. Cell Biol. 36:607-634 (1991), which is incorporated herein by reference). […] After about another 40 min of incubation, the nuclei had disintegrated completely (FIG. 9B) and a generally dispersed filamentous background of Hoechst fluorescence remained along with many small spherical or irregularly shaped aggregates of chromatin (not shown). […]

Row | Molecule | number of viable cells in culture (32D-3 cells [1]) | protection from glutamate-induced cell death (PC12 cells) | protection from Sindbis virus-induced cell death (AT-3 cells) | cell viability / survival without growth factor (32D-3 cells [2]) | intact, transport-competent nuclei ([3]; after 2 hours of incubation, Bcl-2-containing Sf9 lysate added to Xenopus extract) | nuclei remaining intact and transport-competent ([3]; after two hours and forty min incubation, Bcl-2-containing Sf9 lysate) | amount of fluorescent transport substrate imported by nuclei ([3]; in one hour, Bcl-2-containing lysate)
1 | Bcl-2: about 26 kDa protein that promotes cell survival by blocking apoptosis; expressed by gene transfer or added as Sf9 lysate | did not decrease during the time examined | protected the PC12 cells from glutamate-induced death | protected from Sindbis virus-induced death | modest effect | about 50% | 42% | no gross changes
2 | B1 |  |  |  | nearly as effective as the human Bcl-2 |  |  | 
